The text below walks through data of PubChem BioAssay (NCI).

Among the test systems are HOP-62 NSCLC; HOP-92 NSCLC; MOLT-4 leukemia; SR leukemia; T-47D breast; TK-10 renal; HT29 colon; MALME-3M melanoma.
What all share (experiment): growth of human tumour cells (NCI), 48 h

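1) Cells in 96-well plates. 2) Compound, 48 h, 5 concentrations. 3) Linear interpolation between surrounding doses. 4) Unreached endpoint = highest concentration. GI50 = concentration required for 50% inhibition of growth. TGI denotes the concentration required for complete inhibition of growth.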

With `COc1cc(Cn2c(SCC(=O)Nc3ccc(Cl)cc3)nc3ccccc3c2=O)cc(OC)c1OC`, the GI50 is 3.1 µM with HOP-62 NSCLC; 2.26 µM with HOP-92 NSCLC; more than 100 µM with MOLT-4 leukemia; 18.5 µM in the assay on SR leukemia; 2.16 µM with T-47D breast; 2.63 µM in the assay on TK-10 renal. In addition, the TGI was 14.5 µM in the assay with HOP-62 NSCLC; 9.12 µM with HOP-92 NSCLC; more than 100 µM in the assay with MOLT-4 leukemia; more than 100 µM in the assay with SR leukemia; 8.21 µM in the assay with T-47D breast; 7.67 µM in the assay on TK-10 renal.

`O=C(Nc1ccccc1)Nc1ccc(Cl)c(Cl)c1`: the GI50 was 5.84 µM in the assay with HOP-62 NSCLC; 1.52 µM in the assay on HOP-92 NSCLC; 2.85 µM in the assay on HT29 colon; 2.86 µM with MALME-3M melanoma; 3.58 µM in the assay with MOLT-4 leukemia; 2.57 µM with T-47D breast. Further, the GI50 in the assay with TK-10 renal was 3.83 µM. For the same compound, the TGI is more than 100 µM in the assay on HOP-62 NSCLC; 6.12 µM with HOP-92 NSCLC; 20.2 µM with HT29 colon; 21.4 µM in the assay with MALME-3M melanoma; 86.8 µM in the assay on MOLT-4 leukemia; more than 100 µM in the assay on T-47D breast. The compound also yielded a TGI in the assay on TK-10 renal of 36.2 µM.

As to `COC1=CC2CCN3Cc4cc5c(cc4C(C1O)C23)OCC5` (centres undefined), the GI50 in the assay on HOP-62 NSCLC was 3.61 µM; in the assay on HOP-92 NSCLC, 2.97 µM; in the assay with HT29 colon, 0.97 µM; with MOLT-4 leukemia, 2.11 µM; with T-47D breast it was 1.33 µM; in the assay with TK-10 renal, 5.53 µM. In addition, the TGI with HOP-62 NSCLC is more than 61.4 µM; in the assay with HOP-92 NSCLC it was more than 28 µM; with HT29 colon, 9.48 µM; in the assay on MOLT-4 leukemia, more than 100 µM; in the assay with SR leukemia, more than 100 µM; in the assay with T-47D breast, 6.51 µM. In addition, the TGI with TK-10 renal amounted to 41.9 µM.

On to `N=C1/C(=C2\Nc3ccccc3S2)CC(=O)N1c1ccc(SC(F)F)cc1`, for which the GI50 is 1.49 µM in the assay on HOP-62 NSCLC; 1.99 µM with HT29 colon; more than 100 µM with MALME-3M melanoma; 1.42 µM in the assay on MOLT-4 leukemia; 2.21 µM with SR leukemia; 27.8 µM in the assay with T-47D breast. Also, in the assay with TK-10 renal, the GI50 is 22 µM. The TGI with HOP-62 NSCLC is 14.7 µM; in the assay with HT29 colon it was more than 100 µM; with MALME-3M melanoma it was more than 100 µM; with MOLT-4 leukemia, more than 100 µM; in the assay on SR leukemia, more than 100 µM; in the assay with T-47D breast it was more than 100 µM. The same compound returned a TGI in the assay with TK-10 renal of more than 100 µM.

Regarding `COc1ccc2c(c1)N(CCO)C1=C(C(=O)OC1)C2c1ccc(OC)c(OC)c1` (centres undefined), the GI50 with HOP-62 NSCLC is 4.89 µM; in the assay on HT29 colon it was 2.73 µM; with MOLT-4 leukemia, 4.75 µM; in the assay with SR leukemia, 3.68 µM; with T-47D breast it was more than 100 µM; in the assay with TK-10 renal, 4.19 µM. Moreover, the TGI was more than 100 µM in the assay on HOP-62 NSCLC; 7.51 µM with HT29 colon; more than 100 µM in the assay with MOLT-4 leukemia; more than 100 µM in the assay with SR leukemia; more than 100 µM in the assay with T-47D breast; more than 100 µM with TK-10 renal.

Regarding `N#Cc1c(N)c(C#N)c2c(c1-c1ccc(Cl)cc1)COc1ccc(F)cc1-2`, the GI50 in the assay with HOP-92 NSCLC was more than 50 µM; in the assay on HT29 colon, 49.7 µM; in the assay on MOLT-4 leukemia, more than 50 µM; with SR leukemia, more than 50 µM; with T-47D breast it was more than 50 µM; in the assay with TK-10 renal, 7.63 µM. Further, the TGI with HOP-92 NSCLC was more than 50 µM; in the assay on HT29 colon, more than 50 µM; with MOLT-4 leukemia, more than 50 µM; with SR leukemia it was more than 50 µM; in the assay on T-47D breast, more than 50 µM; in the assay on TK-10 renal, 29.9 µM.

`C[C@H](c1ccccc1)N(CCC(=O)O)C(=O)CCN(C(=O)CCN(C(=O)CCN[C@H](C)c1ccccc1)[C@H](C)c1ccccc1)[C@H](C)c1ccccc1`: the GI50 in the assay on HOP-62 NSCLC is more than 100 µM; in the assay with HOP-92 NSCLC, 92 µM; with HT29 colon, more than 100 µM; in the assay with MALME-3M melanoma it was more than 100 µM; in the assay on MOLT-4 leukemia, more than 100 µM; in the assay with T-47D breast, more than 100 µM. The GI50 with TK-10 renal was more than 100 µM. Moreover, the TGI in the assay on HOP-62 NSCLC, in the assay with HOP-92 NSCLC, in the assay on HT29 colon, in the assay with MALME-3M melanoma, in the assay with MOLT-4 leukemia and with T-47D breast was more than 100 µM throughout. The TGI with TK-10 renal is more than 100 µM.

As for `CNCCNc1nc2ccccc2c2c(=O)c3cccc(C)c3sc12`, the GI50 in the assay with HOP-62 NSCLC was 1.36 µM; in the assay on HOP-92 NSCLC, 1.69 µM; in the assay on HT29 colon it was 0.887 µM; in the assay with MALME-3M melanoma, 5.16 µM; with MOLT-4 leukemia it was 1.28 µM; in the assay on SR leukemia, 0.94 µM. Further, the GI50 in the assay on T-47D breast is 0.876 µM. In addition, the TGI in the assay with HOP-62 NSCLC is 8.81 µM; in the assay with HOP-92 NSCLC, 10.8 µM; in the assay with HT29 colon, 1.92 µM; in the assay with MALME-3M melanoma, 11.7 µM; with MOLT-4 leukemia, 3.42 µM; in the assay on SR leukemia, 2.51 µM. Moreover, in the assay on T-47D breast, the TGI amounted to 2.25 µM.

With `CCCCCCSc1nc(COC(=O)NC)c(COC(=O)NC)n1C`, the TGI in the assay on HOP-62 NSCLC, in the assay with HT29 colon, with MOLT-4 leukemia, in the assay with SR leukemia, in the assay on T-47D breast and in the assay with TK-10 renal was more than 100 µM in each case.

In the case of `Cn1cc(C2=C(c3c(S(C)=O)n(C)c4ccccc34)C(=O)NC2=O)c2ccccc21` (centres undefined), the GI50 in the assay with HOP-62 NSCLC is 8.34 µM; in the assay with HT29 colon, 7.51 µM; with MALME-3M melanoma, more than 25 µM; in the assay on MOLT-4 leukemia, 9.4 µM; in the assay with SR leukemia it was 2.55 µM; in the assay on T-47D breast, 8.35 µM. Further, the GI50 in the assay on TK-10 renal is 6.26 µM. For the same compound, the TGI in the assay with HOP-62 NSCLC is more than 25 µM; in the assay with HT29 colon it was more than 25 µM; in the assay with MALME-3M melanoma, more than 25 µM; in the assay with MOLT-4 leukemia it was more than 25 µM; in the assay with SR leukemia it was 24.3 µM; in the assay on T-47D breast, more than 25 µM. Besides, the TGI in the assay with TK-10 renal was more than 25 µM.

As to `CC1COCCN1CC#CCOC(=O)c1cc2ccccc2oc1=O` (centres undefined), the GI50 was more than 100 µM in the assay with HOP-62 NSCLC; 72.5 µM in the assay with HOP-92 NSCLC; more than 100 µM with HT29 colon; more than 100 µM in the assay with MALME-3M melanoma; more than 100 µM with MOLT-4 leukemia; more than 100 µM in the assay with T-47D breast. For the same compound, in the assay with TK-10 renal, the GI50 was more than 100 µM. Moreover, the TGI in the assay on HOP-62 NSCLC, in the assay with HOP-92 NSCLC, in the assay on HT29 colon, in the assay on MALME-3M melanoma, in the assay with MOLT-4 leukemia and in the assay with T-47D breast was more than 100 µM in each case. Moreover, the TGI with TK-10 renal is more than 100 µM.
